# Patent US9889146B2, “Benzoxaborole compounds and uses thereof” (priority 2012, dated 2018)
# Like-named read-outs stand apart in the source and are kept apart here.
# Key:
# Format in all cases: cell-based
# Klebsiella spp. (WT) = assay: microbe, parasite or virus in culture; details: Klebsiella spp. (WT); for MIC90: 159 isolates
# [1] = test system: Morganella morganii (AmpC); assay: microbe, parasite or virus in culture; details: Morganella morganii (AmpC); for MIC90: 18 isolates
# S. marcescens (AmpC) = assay: microbe, parasite or virus in culture; details: S. marcescens (AmpC); for MIC90: 26 isolates
# [2] = test system: Enterobacter cloacae (WT); assay: microbe, parasite or virus in culture; details: for MIC90: 202 isolates
# Providencia spp.(all) = assay: microbe, parasite or virus in culture; details: Providencia spp.(all); for MIC90: 68 isolates
# E. coli (WT) = assay: microbe, parasite or virus in culture; details: E. coli (WT); for MIC90: 214 isolates
# Klebsiella spp. (ESBL) = assay: microbe, parasite or virus in culture; details: Klebsiella spp. (ESBL); for MIC90: 71 isolates
# Proteus vulgaris (WT) = assay: microbe, parasite or virus in culture; details: Proteus vulgaris (WT); for MIC90: 41 isolates
# [3] = test system: Enterobacter cloacae (AmpC); assay: microbe, parasite or virus in culture; details: Enterobacter cloacae (AmpC); for MIC90: 50 isolates
# Enterobacteriaceae = assay: organism not typed; details: Enterobacteriaceae; for MIC90: 2029 isolates
# [4] = test system: Citrobacter freundii (AmpC); assay: microbe, parasite or virus in culture; details: Citrobacter freundii (AmpC); for MIC90: 60 isolates
# [5] = test system: E. coli ATCC 25922, K. pneumoniae ATCC 13883 and P. aeruginosa ATCC 27853; assay: MIC, three strains and their mutants summarised; details: MIC in E. coli, P. aeruginosa and K. pneumoniae mutants versus wild-type
# Method: (§1) Spontaneous Resistance Frequency was determined in vitro for GSK2251052 and the resistance mutants in E. coli ATCC 25922, K. pneumoniae ATCC 13883, and P. aeruginosa ATCC 27853 strains were characterized. GSK2251052 was prepared as described in U.S. Pat. No. 7,816,344 (the entire contents of which are hereby incorporated by reference herein). LB broth, Mueller Hinton II broth (adjusted), and Difco noble agar were obtained from Becton Dickinson (Cockeysville, Md., USA). M9 minimal broth containing 1×M9 salt, 0.5 μg/ML thiamine, 1 mM MgSO4, 0.1 mM CaCl2, 2% glucose, was obtained from Teknova (Hollister, Calif., USA). Antibacterial agents ciprofloxacin, ceftazidime, chloramphenicol, gentamycin, kanamycin, polymixin B, tobramycin and trimethoprim, and amino acids were obtained from Sigma Chemicals (St. Louis, Mo., USA). Strains were obtained from ATCC (Manassas, Va., USA).
# (§2) Susceptibility tests were performed following the recommendations for aerobic bacteria (M7-A7) from the Clinical and Laboratories Standards Institute (CLSI).
# (§3) Laboratory generated mutants resistant to GSK2251052 contain mutations in the editing domain of LeuRS. Six to ten GSK2251052 resistant colonies of E. coli ATCC 25922, K. pneumoniae ATCC 13883 and P. aeruginosa ATCC 27853 were selected for further analysis and their MICs to GSK2251052 were determined (Table 4-7).
# GSK2251052 resistant mutants were not cross-resistant to commercial antibiotics.
# Proteus mirabilis (WT) = assay: microbe, parasite or virus in culture; details: Proteus mirabilis (WT); for MIC90: 235 isolates
# E. coli (ESBL) = assay: microbe, parasite or virus in culture; details: E. coli (ESBL); for MIC90: 27 isolates
# [6] = test system: Enterobacter aerogenes (AmpC); assay: microbe, parasite or virus in culture; details: Enterobacter aerogenes (AmpC); for MIC90: 51 isolates
# [7] = test system: Enterobacter aerogenes (WT); assay: microbe, parasite or virus in culture; details: Enterobacter aerogenes (WT); for MIC90: 199 isolates
# Klebsiella spp. (KPC) = assay: microbe, parasite or virus in culture; details: Klebsiella spp. (KPC); for MIC90: 26 isolates
# [8] = test system: E. coli ATCC 25922 wild type and mutants; assay: MIC, wild type and GSK2251052 resistant mutants; details: for MIC: Escherichia coli
# Method: as §1, §2, §3
# [9] = test system: K. pneumoniae ATCC 13883 wild type and mutants; assay: MIC, wild type and GSK2251052 resistant mutants; details: for MIC: Klebsiella pneumoniae
# Method: as §1, §2, §3
# [10] = test system: P. aeruginosa ATCC 27853 wild type and mutants; assay: MIC, wild type and GSK2251052 resistant mutants; details: for MIC: Pseudomonas aeruginosa
# Method: as §1, §2, §3
# E. coli ATCC 25922 = assay: Spontaneous frequency of resistance; details: 24 h
# Method: as §1
# (§4) Selection of resistance to GSK2251052 was attempted by spreading various amounts of bacteria onto MHBII noble agar plates containing 4×MIC (minimum inhibitory concentration) or 10×MIC of GSK2251052. Colonies were counted after 24 hours and 48 hours incubation at 37° C. The resistance of these colonies was confirmed by their ability to grow on plates containing GSK2251052 at either 4× or 10×MIC. Frequency of resistance was determined by dividing the number of resistant mutants by the total number of cells plated as determined by plating dilutions of the overnight culture on LB plates.
# P. aeruginosa ATCC 27853 = assay: Spontaneous frequency of resistance; details: 24 h
# Method: as §1, §4
# K. pneumoniae ATCC 13883 = assay: Spontaneous frequency of resistance; details: 24 h
# Method: as §1, §4
compound,measurement,setting,value
Gentamicin,MIC90,Klebsiella spp. (WT),1 µg/mL
same,MIC90,[1],> 16 µg/mL
same,MIC90,S. marcescens (AmpC),> 16 µg/mL
same,MIC90,[2],1 µg/mL
same,MIC90,Providencia spp.(all),> 16 µg/mL
same,MIC90,E. coli (WT),> 16 µg/mL
same,MIC90,Klebsiella spp. (ESBL),> 16 µg/mL
same,MIC90,Proteus vulgaris (WT),2 µg/mL
same,MIC90,[3],> 16 µg/mL
same,MIC90,Enterobacteriaceae,16 µg/mL
same,MIC90,[4],> 16 µg/mL
same,cross-resistance of GSK2251052 resistant mutants,[5],did not have any significant difference in MIC values than wild-type
same,MIC90,Proteus mirabilis (WT),4 µg/mL
same,MIC90,E. coli (ESBL),> 16 µg/mL
same,MIC90,[6],4 µg/mL
same,MIC90,[7],1 µg/mL
same,MIC90,Klebsiella spp. (KPC),16 µg/mL
same,MICs,[8]; E wt,2 µg/mL
same,MICs,[8]; mutant E 101,1 µg/mL
same,MICs,[8]; mutant E 102,1 µg/mL
same,MICs,[8]; mutant E 107,1 µg/mL
same,MICs,[9]; K wt.,1 µg/mL
same,MICs,[9]; mutant K 104,1 µg/mL
same,MICs,[9]; mutant K 105,1 µg/mL
same,MICs,[9]; mutant K 107,1 µg/mL
same,MICs,[9]; mutant K 108,0.5 µg/mL
same,MICs,[9]; mutant K 110,1 µg/mL
same,MICs,[10]; P wt.,8 µg/mL
same,MICs,[10]; mutant P 101,4 µg/mL
same,MICs,[10]; mutant P106,4 µg/mL
same,MICs,[10]; mutant P108,4 µg/mL
NC[C@H]1O[C@H](O[C@H]2[C@H](O)[C@@H](O[C@H]3O[C@H](CO)[C@@H](O)[C@H](N)[C@H]3O)[C@H](N)C[C@@H]2N)[C@H](N)C[C@@H]1O [Tobramycin],Frequency of Resistance,E. coli ATCC 25922; 4 X MIC,1 × 10^−5
same,Frequency of Resistance,E. coli ATCC 25922; 10 X MIC,4 × 10^−6
same,Frequency of Resistance,P. aeruginosa ATCC 27853; 4 X MIC,1 × 10^−6
same,Frequency of Resistance,P. aeruginosa ATCC 27853; 10 X MIC,9 × 10^−8
same,Frequency of Resistance,K. pneumoniae ATCC 13883; 4 X MIC,1 × 10^−6
same,Frequency of Resistance,K. pneumoniae ATCC 13883; 10 X MIC,5 × 10^−8
same,cross-resistance of GSK2251052 resistant mutants,[5],did not have any significant difference in MIC values than wild-type
same,MIC,"[8]; ATCC25922, E wt, read-out: MICs",1 µg/mL
same,MIC,"[8]; ATCC25922, read-out: MICs, mutant E 101",1 µg/mL
same,MIC,"[8]; ATCC25922, read-out: MICs, mutant E 102",2 µg/mL
same,MIC,"[8]; ATCC25922, read-out: MICs, mutant E 107",1 µg/mL
same,MIC,"[9]; ATCC13883, K wt., read-out: MICs",0.5 µg/mL
same,MIC,"[9]; ATCC13883, read-out: MICs, mutant K 104",0.5 µg/mL
same,MIC,"[9]; ATCC13883, read-out: MICs, mutant K 105",0.5 µg/mL
same,MIC,"[9]; ATCC13883, read-out: MICs, mutant K 107",0.5 µg/mL
same,MIC,"[9]; ATCC13883, read-out: MICs, mutant K 108",0.5 µg/mL
same,MIC,"[9]; ATCC13883, read-out: MICs, mutant K 110",0.5 µg/mL
same,MIC,"[10]; ATCC27853, P wt., read-out: MICs",0.5 µg/mL
same,MIC,"[10]; ATCC27853, read-out: MICs, mutant P 101",0.5 µg/mL
same,MIC,"[10]; ATCC27853, read-out: MICs, mutant P106",0.5 µg/mL
same,MIC,"[10]; ATCC27853, read-out: MICs, mutant P108",0.5 µg/mL
Polymixin B,MIC90,Klebsiella spp. (WT),1 µg/mL
same,susceptibility category of MIC90,Klebsiella spp. (WT); polymixinB criteria,* (susceptible ≦2 μg/mL)
same,MIC90,[1],> 8 µg/mL
same,susceptibility category of MIC90,[1]; polymixinB criteria,*** (resistant ≧8 μg/mL)
same,MIC90,S. marcescens (AmpC),> 8 µg/mL
same,susceptibility category of MIC90,S. marcescens (AmpC); polymixinB criteria,*** (resistant ≧8 μg/mL)
same,MIC90,[2],> 8 µg/mL
same,susceptibility category of MIC90,[2]; polymixinB criteria,*** (resistant ≧8 μg/mL)
same,MIC90,Providencia spp.(all),8 µg/mL
same,susceptibility category of MIC90,Providencia spp.(all); polymixinB criteria,*** (resistant ≧8 μg/mL)
same,MIC90,E. coli (WT),1 µg/mL
same,susceptibility category of MIC90,E. coli (WT); polymixinB criteria,* (susceptible ≦2 μg/mL)
same,MIC90,Klebsiella spp. (ESBL),2 µg/mL
same,susceptibility category of MIC90,Klebsiella spp. (ESBL); polymixinB criteria,* (susceptible ≦2 μg/mL)
same,MIC90,Proteus vulgaris (WT),> 8 µg/mL
same,susceptibility category of MIC90,Proteus vulgaris (WT); polymixinB criteria,*** (resistant ≧8 μg/mL)
same,MIC90,[3],4 µg/mL
same,susceptibility category of MIC90,[3]; polymixinB criteria,** (intermediate 4 μg/mL)
same,MIC90,Enterobacteriaceae,> 8 µg/mL
same,susceptibility category of MIC90,Enterobacteriaceae; polymixinB criteria,*** (resistant ≧8 μg/mL)
same,MIC90,[4],1 µg/mL
same,susceptibility category of MIC90,[4]; polymixinB criteria,* (susceptible ≦2 μg/mL)
same,cross-resistance of GSK2251052 resistant mutants,[5],did not have any significant difference in MIC values than wild-type
same,MIC90,Proteus mirabilis (WT),> 8 µg/mL
same,susceptibility category of MIC90,Proteus mirabilis (WT); polymixinB criteria,*** (resistant ≧8 μg/mL)
same,MIC90,E. coli (ESBL),2 µg/mL
same,susceptibility category of MIC90,E. coli (ESBL); polymixinB criteria,* (susceptible ≦2 μg/mL)
same,MIC90,[6],2 µg/mL
same,susceptibility category of MIC90,[6]; polymixinB criteria,* (susceptible ≦2 μg/mL)
same,MIC90,[7],4 µg/mL
same,susceptibility category of MIC90,[7]; polymixinB criteria,** (intermediate 4 μg/mL)
same,MIC90,Klebsiella spp. (KPC),> 8 µg/mL
same,susceptibility category of MIC90,Klebsiella spp. (KPC); polymixinB criteria,*** (resistant ≧8 μg/mL)
same,MICs,[8]; E wt,4 µg/mL
same,MICs,[8]; mutant E 101,4 µg/mL
same,MICs,[8]; mutant E 102,4 µg/mL
same,MICs,[8]; mutant E 107,4 µg/mL
same,MICs,[9]; K wt.,4 µg/mL
same,MICs,[9]; mutant K 104,8 µg/mL
same,MICs,[9]; mutant K 105,4 µg/mL
same,MICs,[9]; mutant K 107,2 µg/mL
same,MICs,[9]; mutant K 108,4 µg/mL
same,MICs,[9]; mutant K 110,4 µg/mL
same,MICs,[10]; P wt.,4 µg/mL
same,MICs,[10]; mutant P 101,4 µg/mL
same,MICs,[10]; mutant P106,2 µg/mL
same,MICs,[10]; mutant P108,4 µg/mL
